Results: patent US20160083357A1, “NOVEL TETRAZOLONE DERIVATIVES” (Hoffmann-La Roche Inc., priority 2013, published 2016)
Like-named read-outs stand apart in the source and are kept apart here.

Key:
human CB1 receptors = target: T1, human CB1 receptors (Homo sapiens, UniProt P21554); experiment: cAMP assay, human CB1; format: cell-based
T1 construct: expressed in transfected cells; host or cells: CHO cells
Description: (§1) CHO cells expressing human CB1 or CB2 receptors are seeded 17-24 hours prior to the experiment 50.000 cells per well in a black 96 well plate with flat clear bottom (Corning Costar #3904) in DMEM (Invitrogen No. 31331), lx HT supplement, with 10% fetal calf serum and incubated at 5% CO2 and 37° C. in a humidified incubator. The growth medium was exchanged with Krebs Ringer Bicarbonate buffer with 1 mM IBMX and incubated at 30° C. for 30 min. Compounds were added to a final assay volume of 100 μl and incubated for 30 min at 30° C. Using the cAMP-Nano-TRF detection kit the assay (Roche Diagnostics) was stopped by the addition of 50 μl lysis reagent (Tris, NaCl, 1.5% Triton X100, 2.5% NP40, 10% NaN3) and 50 μl detection solutions (20 μM mAb Alexa700-cAMP 1:1, and 48 μM Ruthenium-2-AHA-cAMP) and shaken for 2 h at room temperature. The time-resolved energy transfer is measured by a TRF reader (Evotec Technologies GmbH), equipped with a ND:YAG laser as excitation source. The plate is measured twice with the excitation at 355 nm and at the emission with a delay of 100 ns and a gate of 100 ns, total exposure time 10 s at 730 (bandwidth 30 nm) or 645 nm (bandwidth 75 nm), respectively. The FRET signal is calculated as follows: FRET=T730-Alexa730-P(T645-B645) with P=Ru730-B730/Ru645-B645, where T730 is the test well measured at 730 nM, T645 is the test well measured at 645 nm, B730 and B645 are the buffer controls at 730 nm and 645 nm, respectively. cAMP content is determined from the function of a standard curve spanning from 10 μM to 0.13 nM cAMP.
(§2) EC50 values were determined using Activity Base analysis (ID Business Solution, Limited). The EC50 values for a wide range of cannabinoid agonists generated from this assay were in agreement with the values published in the scientific literature.

human CB2 receptors = target: T2, human CB2 receptors (Homo sapiens, UniProt P34972); experiment: cAMP assay, human CB2; format: cell-based
T2 construct: expressed in transfected cells; host or cells: CHO cells
T2 sequence (P34972 whole entry): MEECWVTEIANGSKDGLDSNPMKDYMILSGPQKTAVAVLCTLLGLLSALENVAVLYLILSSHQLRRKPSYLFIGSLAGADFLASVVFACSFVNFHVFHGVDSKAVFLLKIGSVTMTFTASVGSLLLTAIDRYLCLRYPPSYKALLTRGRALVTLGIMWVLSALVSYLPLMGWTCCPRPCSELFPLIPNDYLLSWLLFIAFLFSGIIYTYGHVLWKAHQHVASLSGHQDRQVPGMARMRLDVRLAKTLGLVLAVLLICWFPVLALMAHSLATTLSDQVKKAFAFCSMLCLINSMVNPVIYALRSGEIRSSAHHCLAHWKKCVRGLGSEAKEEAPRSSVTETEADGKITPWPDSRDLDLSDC
Description: as §1, §2

[1] = functional cAMP assay, CHO cells expressing human CB1, read-out: Ec50: CB1 - hu cAMP
[2] = functional cAMP assay, CHO cells expressing human CB2, read-out: Ec50: CB2 - hu cAMP

T1 sequence (P21554 whole entry): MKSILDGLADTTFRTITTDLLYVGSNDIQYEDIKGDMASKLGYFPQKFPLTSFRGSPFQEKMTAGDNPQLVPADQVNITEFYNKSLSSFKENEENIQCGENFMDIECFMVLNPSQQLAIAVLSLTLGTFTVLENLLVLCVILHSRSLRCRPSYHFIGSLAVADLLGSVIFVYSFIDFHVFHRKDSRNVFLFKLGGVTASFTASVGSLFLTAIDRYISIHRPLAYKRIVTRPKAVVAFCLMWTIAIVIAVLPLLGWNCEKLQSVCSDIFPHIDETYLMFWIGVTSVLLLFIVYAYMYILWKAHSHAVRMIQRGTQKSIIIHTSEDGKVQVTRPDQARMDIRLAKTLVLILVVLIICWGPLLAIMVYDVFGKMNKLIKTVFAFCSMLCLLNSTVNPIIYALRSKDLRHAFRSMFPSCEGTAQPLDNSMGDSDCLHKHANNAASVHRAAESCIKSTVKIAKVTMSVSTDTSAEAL

Work on `N#CCCN(C(=O)n1nnn(-c2cccc(F)c2)c1=O)C1CC1` [Example 31, 4-(3-Fluoro-phenyl)-5-oxo-4,5-dihydro-tetrazole-1-carboxylic acid (2-cyano-ethyl)-cyclopropyl-amide] yielded an EC50 (human CB1 receptors; [1]) of over 10000 nM and an EC50 (human CB2 receptors; [2]) of 166 nM.
Work on `CN(C(=O)n1nnn(-c2cccc(F)c2)c1=O)c1ccccn1` [Example 32, 4-(3-Fluoro-phenyl)-5-oxo-4,5-dihydro-tetrazole-1-carboxylic acid methyl-pyridin-2-yl-amide] yielded an EC50 (human CB1 receptors; [1]) of over 10000 nM and an EC50 (human CB2 receptors; [2]) of 152 nM.
`CN(C(=O)n1nnn(-c2cccc(F)c2)c1=O)c1cccnc1` [Example 33, 4-(3-Fluoro-phenyl)-5-oxo-4,5-dihydro-tetrazole-1-carboxylic acid methyl-pyridin-3-yl-amide] was tested, and the EC50 (human CB1 receptors; [1]) was over 10000 nM and the EC50 (human CB2 receptors; [2]) was 25 nM.
Molecule `COCC1CCCCN1C(=O)n1nnn(-c2cccc(F)c2)c1=O` (centres unmarked) [Example 34, 1-(3-Fluoro-phenyl)-4-(2-methoxymethyl-piperidine-1-carbonyl)-1,4-dihydro-tetrazol-5-one] has an EC50 (human CB1 receptors; [1]) of over 10000 nM and an EC50 (human CB2 receptors; [2]) of 19 nM.
`CN(C(=O)n1nnn(C2CC2)c1=O)c1cccnc1` [Example 35, 4-Cyclopropyl-5-oxo-4,5-dihydro-tetrazole-1-carboxylic acid methyl-pyridin-3-yl-amide] showed an EC50 (human CB1 receptors; [1]) of over 10000 nM and an EC50 (human CB2 receptors; [2]) of 161 nM.
Work on `CCCn1nnn(C(=O)N(C)c2cccnc2)c1=O` [Example 36, 5-Oxo-4-propyl-4,5-dihydro-tetrazole-1-carboxylic acid methyl-pyridin-3-yl-amide] yielded an EC50 (human CB1 receptors; [1]) of over 10000 nM and an EC50 (human CB2 receptors; [2]) of 874 nM.
In the case of `CC(C)Cn1nnn(C(=O)N(C)c2cccnc2)c1=O` [Example 37, 4-Isobutyl-5-oxo-4,5-dihydro-tetrazole-1-carboxylic acid methyl-pyridin-3-yl-amide], the EC50 (human CB1 receptors; [1]) is reported as over 10000 nM and the EC50 (human CB2 receptors; [2]) is reported as 407 nM.
`CC(=O)N1CCN(C(=O)n2nnn(-c3cccc(F)c3)c2=O)CC1` [Example 38, 1-(4-Acetyl-piperazine-1-carbonyl)-4-(3-fluoro-phenyl)-1,4-dihydro-tetrazol-5-one] was tested, and the EC50 (human CB1 receptors; [1]) was over 10000 nM and the EC50 (human CB2 receptors; [2]) was 92 nM.
`CCC(=O)N1CCN(C(=O)n2nnn(-c3cccc(F)c3)c2=O)CC1` [Example 39, 1-(3-Fluoro-phenyl)-4-(4-propionyl-piperazine-1-carbonyl)-1,4-dihydro-tetrazol-5-one] gave an EC50 (human CB1 receptors; [1]) of over 10000 nM and an EC50 (human CB2 receptors; [2]) of 497 nM.
`CCN(CC)C(=O)N1CCN(C(=O)n2nnn(-c3cccc(F)c3)c2=O)CC1` [Example 40, 4-[4-(3-Fluoro-phenyl)-5-oxo-4,5-dihydro-tetrazole-1-carbonyl]-piperazine-1-carboxylic acid diethylamide] gave an EC50 (human CB1 receptors; [1]) of over 10000 nM and an EC50 (human CB2 receptors; [2]) of 52.8 nM.
`O=C(N1CCC(c2ccccc2)C1)n1nnn(-c2cccc(F)c2)c1=O` (centres unmarked) [Example 41, 1-(3-Fluoro-phenyl)-4-(3-phenyl-pyrrolidine-1-carbonyl)-1,4-dihydro-tetrazol-5-one] was tested, and the EC50 (human CB1 receptors; [1]) was over 10000 nM and the EC50 (human CB2 receptors; [2]) was 3.2 nM.
Molecule `CC(=O)N[C@H]1CCN(C(=O)n2nnn(-c3cccc(F)c3)c2=O)C1` [Example 42, N—{(S)-1-[4-(3-Fluoro-phenyl)-5-oxo-4,5-dihydro-tetrazole-1-carbonyl]-pyrrolidin-3-yl}-acetamide] has an EC50 (human CB1 receptors; [1]) of over 10000 nM and an EC50 (human CB2 receptors; [2]) of 91.1 nM.
Work on `CC(=O)N[C@@H]1CCN(C(=O)n2nnn(-c3cccc(F)c3)c2=O)C1` [Example 43, N—{(R)-1-[4-(3-Fluoro-phenyl)-5-oxo-4,5-dihydro-tetrazole-1-carbonyl]-pyrrolidin-3-yl}-acetamide] yielded an EC50 (human CB1 receptors; [1]) of over 10000 nM and an EC50 (human CB2 receptors; [2]) of 25.8 nM.
`CCN(C(C)=O)C1CCN(C(=O)n2nnn(-c3cccc(F)c3)c2=O)C1` (centres unmarked) [Example 44, N-Ethyl-N-{1-[4-(3-fluoro-phenyl)-5-oxo-4,5-dihydro-tetrazole-1-carbonyl]-pyrrolidin-3-yl}-acetamide] gave an EC50 (human CB1 receptors; [1]) of over 10000 nM and an EC50 (human CB2 receptors; [2]) of 13.8 nM.
Work on `O=C(N1CCC(F)(F)C1)n1nnn(-c2cccc(F)c2)c1=O` [Example 45, 1-(3,3-Difluoro-pyrrolidine-1-carbonyl)-4-(3-fluoro-phenyl)-1,4-dihydro-tetrazol-5-one] yielded an EC50 (human CB1 receptors; [1]) of over 10000 nM and an EC50 (human CB2 receptors; [2]) of 797 nM.
Work on `CC1(C)CCCN1C(=O)n1nnn(-c2cccc(F)c2)c1=O` [Example 46, 1-(2,2-Dimethyl-pyrrolidine-1-carbonyl)-4-(3-fluoro-phenyl)-1,4-dihydro-tetrazol-5-one] yielded an EC50 (human CB1 receptors; [1]) of over 10000 nM and an EC50 (human CB2 receptors; [2]) of 90.2 nM.
Molecule `CC1(C)CCN(C(=O)n2nnn(-c3cccc(F)c3)c2=O)C1` [Example 47, 1-(3,3-Dimethyl-pyrrolidine-1-carbonyl)-4-(3-fluoro-phenyl)-1,4-dihydro-tetrazol-5-one] has an EC50 (human CB1 receptors; [1]) of over 10000 nM and an EC50 (human CB2 receptors; [2]) of 2.7 nM.
`CC1CCCN1C(=O)n1nnn(-c2cccc(F)c2)c1=O` (centres unmarked) [Example 48, 1-(3-Fluoro-phenyl)-4-(2-methyl-pyrrolidine-1-carbonyl)-1,4-dihydro-tetrazol-5-one] gave an EC50 (human CB1 receptors; [1]) of over 10000 nM and an EC50 (human CB2 receptors; [2]) of 6.7 nM.
Molecule `CC(=O)N(C)C1CCN(C(=O)n2nnn(-c3cccc(F)c3)c2=O)C1` (centres unmarked) [Example 49, N-{1-[4-(3-Fluoro-phenyl)-5-oxo-4,5-dihydro-tetrazole-1-carbonyl]-pyrrolidin-3-yl}-N-methyl-acetamide] has an EC50 (human CB1 receptors; [1]) of over 10000 nM and an EC50 (human CB2 receptors; [2]) of 14.3 nM.
`CCOC(=O)N1CCN(C(=O)n2nnn(-c3cccc(F)c3)c2=O)CC1` [Example 50, 4-[4-(3-Fluoro-phenyl)-5-oxo-4,5-dihydro-tetrazole-1-carbonyl]-piperazine-1-carboxylic acid ethyl ester] was tested, and the EC50 (human CB1 receptors; [1]) was over 10000 nM and the EC50 (human CB2 receptors; [2]) was 567 nM.
Molecule `N#C[C@@H]1CCCN1C(=O)n1nnn(-c2cccc(F)c2)c1=O` [Example 51, (S)-1-[4-(3-Fluoro-phenyl)-5-oxo-4,5-dihydro-tetrazole-1-carbonyl]-pyrrolidine-2-carbonitrile] has an EC50 (human CB1 receptors; [1]) of over 10000 nM and an EC50 (human CB2 receptors; [2]) of 154 nM.
Work on `N#C[C@H]1CCCN1C(=O)n1nnn(-c2cccc(F)c2)c1=O` [Example 52, (R)-1-[4-(3-Fluoro-phenyl)-5-oxo-4,5-dihydro-tetrazole-1-carbonyl]-pyrrolidine-2-carbonitrile] yielded an EC50 (human CB1 receptors; [1]) of over 10000 nM and an EC50 (human CB2 receptors; [2]) of 129 nM.
Molecule `CCN(Cc1ccccc1)C(=O)n1nnn(-c2ccc(Cl)nc2)c1=O` [Example 53, 4-(6-Chloro-pyridin-3-yl)-5-oxo-4,5-dihydro-tetrazole-1-carboxylic acid benzyl-ethyl-amide] has an EC50 (human CB1 receptors) of over 10000 nM and an EC50 (human CB2 receptors) of 1 nM.
In the case of `COCCN(C)C(=O)n1nnn(-c2cccc(F)c2)c1=O` [Example 54, 4-(3-Fluoro-phenyl)-5-oxo-4,5-dihydro-tetrazole-1-carboxylic acid (2-methoxy-ethyl)-methyl-amide], the EC50 (human CB1 receptors; [1]) is reported as over 10000 nM and the EC50 (human CB2 receptors; [2]) is reported as 1.3 nM.
In the case of `COCCN(C(=O)n1nnn(-c2cccc(F)c2)c1=O)C(C)C` [Example 55, 4-(3-Fluoro-phenyl)-5-oxo-4,5-dihydro-tetrazole-1-carboxylic acid isopropyl-(2-methoxy-ethyl)-amide], the EC50 (human CB1 receptors; [1]) is reported as over 10000 nM and the EC50 (human CB2 receptors; [2]) is reported as 4.1 nM.
For `CCCN(CCOC)C(=O)n1nnn(-c2cccc(F)c2)c1=O` [Example 56, 4-(3-Fluoro-phenyl)-5-oxo-4,5-dihydro-tetrazole-1-carboxylic acid (2-methoxy-ethyl)-propyl-amide], the EC50 (human CB1 receptors) was over 10000 nM and the EC50 (human CB2 receptors) was 17 nM.
In the case of `COCCN(CCOC)C(=O)n1nnn(-c2cccc(F)c2)c1=O` [Example 57, 4-(3-Fluoro-phenyl)-5-oxo-4,5-dihydro-tetrazole-1-carboxylic acid bis-(2-methoxy-ethyl)-amide], the EC50 (human CB1 receptors; [1]) is reported as over 10000 nM and the EC50 (human CB2 receptors; [2]) is reported as 8.5 nM.
`CC1CN(C(=O)n2nnn(-c3cccc(F)c3)c2=O)CC(C)O1` (centres unmarked) [Example 58, 1-(2,6-Dimethyl-morpholine-4-carbonyl)-4-(3-fluoro-phenyl)-1,4-dihydro-tetrazol-5-one] gave an EC50 (human CB1 receptors; [1]) of over 10000 nM and an EC50 (human CB2 receptors; [2]) of 45.4 nM.
`C[C@@H]1CN(C(=O)n2nnn(-c3cccc(F)c3)c2=O)C[C@H](C)O1` [Example 59, 1-((2S,6R)-2,6-Dimethyl-morpholine-4-carbonyl)-4-(3-fluoro-phenyl)-1,4-dihydro-tetrazol-5-one] showed an EC50 (human CB1 receptors; [1]) of over 10000 nM and an EC50 (human CB2 receptors; [2]) of 988 nM.
With `COCC1CCN(C(=O)n2nnn(-c3cccc(F)c3)c2=O)CC1` [Example 60, 1-(3-Fluoro-phenyl)-4-(4-methoxymethyl-piperidine-1-carbonyl)-1,4-dihydro-tetrazol-5-one] the EC50 (human CB1 receptors; [1]) was over 10000 nM and the EC50 (human CB2 receptors; [2]) was 1.3 nM.
`N#CC1CCN(C(=O)n2nnn(-c3cccc(F)c3)c2=O)CC1` [Example 61, 1-[4-(3-Fluoro-phenyl)-5-oxo-4,5-dihydro-tetrazole-1-carbonyl]-piperidine-4-carbonitrile] showed an EC50 (human CB1 receptors; [1]) of over 10000 nM and an EC50 (human CB2 receptors; [2]) of 6.8 nM.
